Results reported in patent US20200289430A1, “Antibacterial Treatments Using Cannabinoids” (priority 2017, published 2020).
Converted amounts (≈) assume the structure as drawn. Structures can show the parent of a compound that is named as a salt. Where two headings read alike, the source gives them in different places.

What was measured:
Format in all cases: cell-based
Propionibacterium acnes = experiment: Minimum Inhibitory Concentration (MIC), Macrodilution Broth Method, Propionibacterium acnes ATCC strains; settings: Cutibacterium acnes
Source text: (§1) This study, a Minimum Inhibitory Concentration (MIC), will be performed based upon the Macrodilution Broth Method outlined in CLSJ Document M07-A 10, Methods for Dilution Antimicrobial Susceptibility Tests for Bacteria that Gro111 Aerobically, Tenth Edition, and CLSI Document MI I-A8, Methods for Antimicrobial Susceptibility Testing of Anaerobic Bacteria, Eighth Edition.
(§2) The Test Material will be evaluated versus at total of 17 different microorganism strains: 7 strains of Methicillin resistant Staphylococcus aureus, 6 stains of Propionibacterium acnes, 2 strains of Erythromycin resistant Propionibacterium acnes, and 2 strains of Tetracycline resistant Propionibacterium acnes. Positive Control Material #1 will be evaluated versus 2 strains of Erythromycin resistant Propionibacterium acnes. Positive Control Material #2 will be evaluated versus 2 strains of Tetracycline resistant Propionibacterium acnes.
(§3) A suspension of each challenge strain will be prepared and exposed to each of 10 doubling dilutions of the test material or positive control materials prepared in the appropriate nutrient broth (reference Table I). Following incubation, the Minimum Inhibitory Concentration (MIC) of the test material and positive control materials will be determined visually and documented.
(§4) 2 to 6 days prior to testing, sterile tubes containing Reinforced Clostridial Medium (RCM) will be inoculated from lyophilized vials or cryogenic stock cultures containing these species. The broth cultures will be incubated anaerobically at 35±2° C. for 1 to 3 days, or until sufficient growth is observed.
(§5) The purity of each broth culture will be verified by preparing duplicate isolation streaks on Chocolate Agar with Enrichment (CAE), and incubating one plate aerobically and one anaerobically at 35±2° C.
(§6) Following incubation, initial suspensions containing approximately 10^8 CFU/mL will be prepared for each species by centrifuging the broth culture tubes, combining the resulting pellets, and resuspending them in additional broth.
(§7) Final Challenge Suspensions containing approximately 1×10^6 CFU/mL of each microorganism strain will be prepared by transferring aliquots of the 10^8 CFU/mL initial suspensions into separate containers containing a volume of the appropriate broth media sufficient to the needs of testing.
(§8) On each day of testing, the Test Material will be diluted (v/v) using the appropriate broth media to produce an intermediate solution containing […] of Cannabidiol.
(§9) A series of 1:2 (v/v) dilutions of intermediate Test Material solution will be prepared using the appropriate broth media, to produce active concentrations of 100 μg/mL, 50 μg/mL, 25 μg/mL, 12.5 μg/mL, 6.25 μg/mL, 3.125 μg/mL, 1.562 μg/mL, 0.781 μg/mL, 0.390 μg/mL, and 0.195 μg/mL.
(§10) A 1.0 mL aliquot of the intermediate Test Material solution (100 μg/mL), and 1.0 mL aliquots of each of the 9 test material dilutions prepared will be transferred to separate sterile test tubes. For each challenge microorganism, three sets of test tubes will be prepared for the Test Material.
(§11) A 1.0 mL aliquot of a challenge suspension containing approximately 1×10^6 CFU/mL will be dispensed into each dilution tube in each series.
(§12) Following inoculation, final active Test Material concentrations of 50 μg/mL, 25 μg/mL, 12.5 μg/mL, 6.25 μg/mL, 3.125 ug/ml, 1.562 μg/mL, 0.781 μg/mL, 0.390 ug/ml, 0.195 μg/mL and 0.0976 μg/mL will be produced.
(§13) Each dilution tube will contain approximately 5×10^5 CFU/mL of the challenge microorganism.
Positive Control Tubes (Growth Controls) containing a 1.0 mL aliquot of the appropriate broth media, and a 1.0 mL aliquot of challenge suspension will be prepared using each microorganism strain.
Negative Control Tubes (Sterility Controls; no microbial inoculation) of each broth media will be prepared.
Following incubation, the tubes will be examined for growth of the challenge microorganism, as determined visually on the basis of turbidity.

[1] = system: Propionibacterium acnes Erythromycin Resistant Clinical Isolates; experiment: MIC, Macrodilution Broth Method, Erythromycin resistant P. acnes clinical isolates; settings: for MIC: Cutibacterium acnes, read-out: Minimum Inhibitory Concentration (MIC); for Minimum Inhibitory Concentration (MIC): Erythromycin resistant P. acnes clinical isolate BSLI #281014Pa6
Source text: as §1, §2, §3, §4, §5, §6, §7, §8
(§14) A series of 1:2 (v/v) dilutions of intermediate Test Material solution will be prepared using the appropriate broth media, to produce active concentrations of 100 μg/mL, 50 μg/mL, 25 μg/mL, 12.5 μg/mL, 6.25 μg/mL, 3.125 μg/mL, 1.562 μg/mL, 0.781 μg/mL, 0.390 μg/mL, and 0.195 μg/mL. […]

[2] = system: Propionibacterium acnes Tetracycline Resistant Clinical Isolates; experiment: microbe, parasite or virus in culture; settings: Cutibacterium acnes
Source text: as §1, §2, §3, §4, §5, §6, §7, §8, §14

[3] = system: Methicillin resistant Staphylococcus aureus; experiment: microbe, parasite or virus in culture
Source text: as §1, §2, §3
2 to 4 days prior to testing, inocula from lyophilized vials or cryogenic stock cultures containing each species will be suspended in 0.9% Sodium Chloride Irrigation, USP (SCI), inoculated onto the surface of Tryptic Soy Agar (TSA) contained in Petri plates, and incubated at 35±2° C. for 24 to 48 hours, or until sufficient growth is observed.
24 to 48 hours prior to testing, growth from the agar plates previously prepared will be suspended in SCI.
The purity of each suspension will be verified by preparing isolation streaks of each culture on TSA. Aliquots of each suspension will then be spread-plated onto the surface of additional plates of TSA and incubated at 35±2° C. until sufficient growth is observed. This will produce lawns of the bacteria on the surface of the agar plates, and growth from these will be used to prepare the challenge suspensions.
Immediately prior to testing, an initial suspension of each species will be prepared in SCI by suspending the microorganisms from the solid media to achieve initial suspension concentrations of approximately 10^8 CFU/mL. The suspensions may be centrifuged, if deemed necessary, to achieve the desired concentration.
as §7, §8, §9, §10, §11, §12, §13

[4] = read-out: Minimum Inhibitory Concentration (MIC), Tetracycline resistant P. acnes clinical isolate BSLI #281014Pa2
[5] = read-out: Minimum Inhibitory Concentration (MIC), Tetracycline resistant P. acnes clinical isolate BSLI #281014Pa4

Compound | MIC (Propionibacterium acnes; ATCC6919, Propionibacterium acnes ATCC #6919, anaerobic, RCM broth, read-out: Minimum Inhibitory Concentration (MIC)) [µg/mL] | MIC (Propionibacterium acnes; ATCC6922, Propionibacterium acnes ATCC #6922, anaerobic, RCM broth, read-out: Minimum Inhibitory Concentration (MIC)) [µg/mL] | MIC (Propionibacterium acnes; ATCC6923, Propionibacterium acnes ATCC #6923, anaerobic, RCM broth, read-out: Minimum Inhibitory Concentration (MIC)) [µg/mL] | MIC (Propionibacterium acnes; ATCC11827, Propionibacterium acnes ATCC #11827, anaerobic, RCM broth, read-out: Minimum Inhibitory Concentration (MIC)) [µg/mL] | MIC (Propionibacterium acnes; ATCC11828, Propionibacterium acnes ATCC #11828, anaerobic, RCM broth, read-out: Minimum Inhibitory Concentration (MIC)) [µg/mL] | MIC (Propionibacterium acnes; ATCC51277, Propionibacterium acnes ATCC #51277, anaerobic, RCM broth, read-out: Minimum Inhibitory Concentration (MIC)) [µg/mL] | MIC (Propionibacterium acnes; all P. acnes strains tested, including strains resistant to other antibiotics, read-out: MIC against Propionibacterium acnes (summary over all strains)) [µg/mL] | MIC [1] [µg/mL] | Minimum Inhibitory Concentration (MIC) [1] [µg/mL] | MIC [2, 4] [µg/mL] | MIC [2, 5] [µg/mL] | MIC ([3]; ATCC33592, read-out: Minimum Inhibitory Concentration (MIC)) [µg/mL] | MIC ([3]; ATCCBAA41, read-out: Minimum Inhibitory Concentration (MIC)) [µg/mL] | MIC ([3]; ATCCBAA42, read-out: Minimum Inhibitory Concentration (MIC)) [µg/mL] | MIC ([3]; ATCCBAA44, read-out: Minimum Inhibitory Concentration (MIC)) [µg/mL] | MIC ([3]; ATCCBAA1683, read-out: Minimum Inhibitory Concentration (MIC)) [µg/mL] | MIC ([3]; ATCCBAA2094, read-out: Minimum Inhibitory Concentration (MIC)) [µg/mL] | MIC ([3]; ATCCBAA2313, read-out: Minimum Inhibitory Concentration (MIC)) [µg/mL] | MIC ([3]; read-out: MIC against Staphylococcus aureus (summary over all strains)) [µg/mL]
C=C(C)[C@@H]1CCC(C)=C[C@H]1c1c(O)cc(CCCCC)cc1O [Cannabidiol] | 3.12 (≈ 9.94 µM) | 6.25 (≈ 19.9 µM) | 6.25 (≈ 19.9 µM) | 3.12 (≈ 9.94 µM) | 6.25 (≈ 19.9 µM) | 6.25 (≈ 19.9 µM) | 3.12 to 6.25 (≈ 9.94 to 19.9 µM) | 6.25 (≈ 19.9 µM) | 6.25 | 3.12 (≈ 9.94 µM) | 6.25 (≈ 19.9 µM) | 1.56 (≈ 4.97 µM) | 1.56 (≈ 4.97 µM) | 1.56 (≈ 4.97 µM) | 1.56 (≈ 4.97 µM) | 1.56 (≈ 4.97 µM) | 1.56 (≈ 4.97 µM) | 1.56 (≈ 4.97 µM) | ~1.56 (≈ 4.97 µM)
CC[C@H]1OC(=O)[C@H](C)[C@@H](O[C@H]2C[C@@](C)(OC)[C@@H](O)[C@H](C)O2)[C@H](C)[C@@H](O[C@@H]2O[C@H](C)C[C@H](N(C)C)[C@H]2O)[C@](C)(O)C[C@@H](C)C(=O)[C@H](C)[C@@H](O)[C@]1(C)O [Erythromycin, reference compound] | – | – | – | – | – | – | – | 2050 (≈ 2790 µM) | 2048 | – | – | – | – | – | – | – | – | – | –
CN(C)[C@@H]1C(O)=C(C(N)=O)C(=O)[C@@]2(O)C(O)=C3C(=O)c4c(O)cccc4[C@@](C)(O)[C@H]3C[C@@H]12 [Tetracycline HCl, reference compound] | – | – | – | – | – | – | – | – | – | 64 | 128 | – | – | – | – | – | – | – | –
